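All cell lines were grown in 96-well plates and treated with compound for 48 hours. At the GI50, growth is halved. TGI: concentration producing complete growth inhibition.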
Columns and labels:
Assay in all cases: NCI tumour cell line growth inhibition, 48 h
[1] = system: MCF7 breast
[2] = system: LOX IMVI melanoma
[3] = system: SF-539 CNS
[4] = system: 786-0 renal
[5] = system: A549 NSCLC
[6] = system: NCI-H460 lung
[7] = system: SNB-75 CNS
[8] = system: HL-60(TB) leukemia
[9] = system: SW-620 colon
[10] = system: NCI-H23 lung
[11] = system: HOP-92 NSCLC
[12] = system: PC-3 prostate
[13] = system: EKVX NSCLC
[14] = system: SK-OV-3 ovarian
[15] = system: SN12C renal
[16] = system: SK-MEL-5 melanoma
[17] = system: UO-31 renal
[18] = system: BT-549 breast
[19] = system: NCI-H522 lung
[20] = system: SK-MEL-28 melanoma
[21] = system: OVCAR-3 ovarian
[22] = system: NCI-H226 lung
[23] = system: K-562 leukemia
[24] = system: OVCAR-5 ovarian
[25] = system: CAKI-1 renal
[26] = system: NCI/ADR-RES ovarian
[27] = system: U251 CNS
[28] = system: SK-MEL-2 melanoma
[29] = system: HT29 colon
[30] = system: RXF 393 renal
[31] = system: IGROV1 ovarian
[32] = system: OVCAR-4 ovarian
[33] = system: OVCAR-8 ovarian
[34] = system: UACC-257 melanoma
[35] = system: RPMI-8226 leukemia
[36] = system: HCC-2998 colon
[37] = system: SNB-19 CNS
[38] = system: T-47D breast
[39] = system: TK-10 renal
[40] = system: ACHN renal
[41] = system: CCRF-CEM leukemia
[42] = system: HCT-15 colon
[43] = system: MOLT-4 leukemia
[44] = system: SR leukemia
[45] = system: COLO 205 colon
[46] = system: MALME-3M melanoma
[47] = system: SF-295 CNS
[48] = system: M14 melanoma
[49] = system: UACC-62 melanoma
[50] = system: HCT-116 colon
[51] = system: MDA-MB-231 breast
[52] = system: HS 578T breast
[53] = system: HOP-62 NSCLC
[54] = system: MDA-MB-435
[55] = system: SF-268 CNS
[56] = system: DU-145 prostate
[57] = system: KM12 colon
[58] = system: A498 renal

## Cc1cc(Nc2nc(N[C@@H](C)c3ncc(F)cn3)ncc2Cl)n[nH]1
[1]
  GI50: 8.71 µM
  TGI: > 100 µM
[2]
  GI50: 13.8 µM
  TGI: > 100 µM
[3]
  GI50: 14.9 µM
  TGI: 58 µM
[4]
  GI50: 23.6 µM
  TGI: > 100 µM
[5]
  GI50: 29.5 µM
  TGI: > 100 µM
[6]
  GI50: 22.2 µM
  TGI: > 100 µM
[7]
  GI50: 8.85 µM
  TGI: 36.4 µM
[8]
  GI50: 29.9 µM
  TGI: > 100 µM
[9]
  GI50: 22.6 µM
  TGI: > 100 µM
[10]
  GI50: 23.1 µM
  TGI: > 100 µM
[11]
  GI50: 10.1 µM
  TGI: 42.4 µM
[12]
  GI50: 43.7 µM
  TGI: > 100 µM
[13]
  GI50: 56.8 µM
  TGI: > 100 µM
[14]
  GI50: 22.6 µM
  TGI: > 100 µM
[15]
  GI50: 20.4 µM
  TGI: > 100 µM
[16]
  GI50: 26 µM
  TGI: > 100 µM
[17]
  GI50: 24.6 µM
  TGI: > 100 µM
[18]
  GI50: 9.81 µM
  TGI: > 100 µM
[19]
  GI50: 21.1 µM
  TGI: > 100 µM
[20]
  GI50: 38.1 µM
  TGI: > 100 µM
[21]
  GI50: 59.1 µM
  TGI: > 100 µM
[22]
  GI50: 1.14 µM
  TGI: 54.8 µM
[23]
  GI50: 32.2 µM
  TGI: > 100 µM
[24]
  GI50: 38.4 µM
  TGI: > 100 µM
[25]
  GI50: 17.5 µM
  TGI: > 100 µM
[26]
  GI50: 32 µM
  TGI: > 100 µM
[27]
  GI50: 24.5 µM
  TGI: > 100 µM
[28]
  GI50: 28.7 µM
  TGI: 92.1 µM
[29]
  GI50: 27.8 µM
  TGI: > 100 µM
[30]
  GI50: 5.07 µM
  TGI: 19.9 µM
[31]
  GI50: 26.1 µM
  TGI: > 100 µM
[32]
  GI50: 23.2 µM
  TGI: > 100 µM
[33]
  GI50: 30.5 µM
  TGI: > 100 µM
[34]
  GI50: 33.2 µM
  TGI: > 100 µM
[35]
  GI50: > 62 µM
  TGI: > 100 µM
[36]
  GI50: 38.7 µM
  TGI: > 100 µM
[37]
  GI50: 51.7 µM
  TGI: > 100 µM
[38]
  GI50: 22.8 µM
  TGI: > 100 µM
[39]
  GI50: 30 µM
  TGI: > 100 µM
[40]
  GI50: 20.4 µM
  TGI: > 100 µM
[41]
  GI50: 55.7 µM
  TGI: > 100 µM
[42]
  GI50: 24.9 µM
  TGI: > 100 µM
[43]
  GI50: 60.7 µM
  TGI: > 100 µM
[44]
  GI50: 4.15 µM
  TGI: > 100 µM
[45]
  GI50: 17.8 µM
  TGI: 48.9 µM
[46]
  GI50: 47.1 µM
  TGI: > 100 µM
[47]
  GI50: 35.6 µM
  TGI: > 100 µM
[48]
  GI50: 20.7 µM
  TGI: > 100 µM
[49]
  GI50: 11.7 µM
  TGI: 88 µM
[50]
  GI50: 13.3 µM
  TGI: > 100 µM
[51]
  GI50: 30.6 µM
  TGI: > 100 µM
[52]
  GI50: 15.9 µM
  TGI: > 71.8 µM
[53]
  GI50: 20 µM
  TGI: > 100 µM
[54]
  GI50: 28.1 µM
  TGI: > 100 µM
[55]
  GI50: 18.2 µM
  TGI: > 82.4 µM
[56]
  GI50: 40.8 µM
  TGI: > 100 µM
[57]
  GI50: 0.369 µM
  TGI: > 64.1 µM
[58]
  GI50: 1.85 µM
  TGI: 13.1 µM

Source: PubChem BioAssay (NCI)
